Data on one substance can be found in patent publication US9746463B2 (THE TRUSTEES OF COLUMBIA UNIVERSITY IN THE CITY OF NEW YORK, priority 2006, dated 2017).

Ends that are not written are not given here.

Assay [1] can be described thus: Osteocalcin subcutaneous infusion in wt mice: insulin sensitivity after insulin injection. The class given is in vivo, mouse. The following applies: wild type mice, 0.3 or 3 ng/hour subcutaneously for 18 days, then insulin injection, 0-120 minutes, vs PBS. On the procedure:
FIG. 12. […] Wt mice were infused subcutaneously with indicated doses of recombinant osteocalcin or PBS for 18 days before receiving a single injection of insulin. Blood glucose was measured thereafter at indicated times.
(§1) Metabolic studies. For glucose tolerance test (GTT), glucose (2 g/kg body weight (BW)) was injected intraperitoneally (IP) after an overnight fast and blood glucose was monitored using blood glucose strips and the Accu-Check glucometer (Roche) at indicated times. For glucose stimulated insulin secretion test (GSIS), glucose (3 g/kg BW) was injected IP after an overnight fast; sera were collected from tails and insulin measured as described (Mauvais-Jarvis et al., 2000). For insulin tolerance test (ITT), mice were fasted for six hours, injected IP with insulin (0.2 U/kg BW) and blood glucose levels were measured at indicated times as described (Mauvais-Jarvis et al., 2002). ITT data are presented as percentage of initial blood glucose concentration. […] Streptozotocin ([…] single injection, Sigma) was injected IP and blood glucose measured as described above every 2 days thereafter. […] Food intake was measured using metabolic cages as the daily change of food weight. Energy expenditure was measured using metabolic cages connected to a calorimeter (Columbus Instrument). Heat values (Kcal/Hr) were recorded over 2 days and reported to each mouse BW. […]

Assay [2] in a line: Osteocalcin subcutaneous infusion in wt mice: body weight and gonadal fat pad mass. In kind it is in vivo, mouse. On the procedure: (FIG. 13A) Indicated doses of recombinant osteocalcin or PBS were infused subcutaneously for 28 days in wt mice. Body weight was recorded at indicated days. (FIG. 13B) Gonadal fat pad mass was measured after 28 days.
In another in vivo experiment, the effect of uncarboxylated osteocalcin on body weight and fat pad mass was monitored (FIG. 13). Wild type mice were infused subcutaneously for 28 days with PBS or uncarboxylated osteocalcin at 0.3, 1 or 3 ng/hour. […] (FIG. 13) Gonadal fat pad mass, measured after 28 days, decreased by about %18 with 3 ng/hour uncarboxylated osteocalcin treatment.

Assay [3] is described as follows: Osteocalcin subcutaneous infusion in wt mice: glycemia. The class given is in vivo, mouse. To be noted: wild type mice, 0.3, 1 and 3 ng/hour subcutaneously for 28 days, vs PBS. As for the experimental part: FIG. 10. […] Indicated doses of recombinant osteocalcin or PBS were infused subcutaneously for 28 days in wt mice. Blood glucose was measured at indicated days.
An in vivo experiment was conducted in which the effect of undercarboxylated osteocalcin on glycemia was monitored. Wild type mice were infused with 3 different amounts of mouse recombinant undercarboxylated osteocalcin or placebo (PBS) subcutaneously for 28 days (0.3, 1 and 3 ng/hour).

Assay [4] has as its system Insulin and Cyclin D1 expression in WT islets. Nature of the assay: Insulin and Cyclin D1 expression in islets cultured with uncarboxylated osteocalcin. The following applies: 0.3 ng/ml (FIG. 7L). In kind it is cell-based, mouse. On the procedure:
FIG. 7A-O. Esp−/− Mice Are a Model of Increased Osteocalcin Bioactivity. (FIGS. 7A-G) Comparison between 6-week-old WT, Esp−/, Ocn+/−, and Esp−/−; Ocn+/− mice. (FIG. 7A) Blood glucose levels. (FIG. 7B) Serum insulin levels. (FIG. 7C) Serum adiponectin levels. (FIG. 7D) GTT. (FIG. 7E) ITT. (FIG. 7F) GSIS test. (FIG. 7G) Quantification of the number of Ki67-immunoreactive cells in pancreatic islets. […] (FIG. 7K) Expression of Adiponectin in WT adipocytes cultured in presence of vehicle or of 1 ng/ml of commercially available carboxylated osteocalcin (Immunotopics) or bacterially produced uncarboxylated osteocalcin. (FIG. 7L) Expression of Insulin and Cyclin D1 in WT islets cultured in presence of 0.3 ng/ml of bacterially produced uncarboxylated osteocalcin or vehicle. (FIG. 7M) Metabolic parameters and total serum osteocalcin levels in control and obese patients. (FIG. 7N-O) Quantification of carboxylated osteocalcin (HA-bound osteocalcin) in control and obese patients. In (FIGS. 7A)-(C) and (FIGS. G)-(L): *p<0.05 versus WT (Student's t test); in (FIG. D)-(F), °p<0.05 versus WT and *p % 0.001 versus WT (ANOVA followed by post hoc analysis).
Mouse islets and adipocytes isolation. Islets were isolated using a Histopaque gradient (1077, Sigma). […]

Assay [5] is described as follows: Osteocalcin subcutaneous infusion in wt mice: glucose tolerance after glucose injection. The class given is in vivo, mouse. To be noted: wild type mice, 0.3 or 3 ng/hour subcutaneously for 14 days, then glucose injection, 120 minutes, vs PBS. On the procedure:
FIG. 11. […] Wt mice were infused subcutaneously with indicated doses of recombinant osteocalcin or PBS for 14 days before receiving a single injection of glucose. Blood glucose was measured thereafter at indicated times.
as §1

Where [6] appears, read: listed as recombinant osteocalcin.

Turning to “uncarboxylated osteocalcin: Recombinant mouse osteocalcin bacterially produced as GST fusion, cleaved with thrombin; completely undercarboxylated at all three sites (YLGASVPSPDPLEPTREQCELNPACDELSDQYGLKTAYKRIYGITI; not fully specified; ends and bridges not checked; UniProt P86546 50-95, looked up)”, the insulin sensitivity entry in assay [1] is reported as “increased”; in assay [1] (setting [6]), “increases insulin sensitivity”. The “decrease of gonadal fat pad mass” value in assay [2] (3 ng/hour, measured after 28 days) was about 18%. Besides, the fat mass result in assay [2] (indicated doses infused subcutaneously for 28 days (figure legend)) is given as “decreases fat mass”. For the same substance, the “gonadal fat pad mass” value in assay [2] (the other doses (0.3, 1 ng/hour), 28 days) is “did not significantly decrease fat pad mass”. Also, the body weight result in assay [2] (wild type mice, 0.3, 1 or 3 ng/hour subcutaneously for 28 days, highest dose most effective) was “slightly reduced”. Besides, the entries for the “glycemia (blood glucose)” value in assay [3] (setting [6]) and in assay [3] (listed as undercarboxylated osteocalcin) were “decreases glycemia” and “decreased glycemia”, respectively. The “expression of Cyclin D1, marker of beta-cell proliferation” value in assay [4] is reported as “induced”. In addition, the insulin expression entry in assay [4] is reported as “induced insulin expression”. Moreover, the glucose tolerance entry in assay [5] is listed as “increased glucose tolerance”; in assay [5] (setting [6]), “increases glucose tolerance”.
